For 15 compounds, TGI results are on record in PubChem BioAssay (NCI).

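Cultured in 96-well plates, cells were exposed to test compound for 48 hours across five concentrations. TGI marks complete inhibition of growth.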 A value given as a limit tells only on which side of the number the result lay.

Test systems include CCRF-CEM leukemia; DU-145 prostate; HCT-116 colon; HCT-15 colon; HOP-62 NSCLC; IGROV1 ovarian; NCI-H226 lung; U251 CNS; SK-MEL-2 melanoma; T-47D breast.
Holding throughout (test): DTP human tumour cell line panel, 48 h

As for `CC1(C)CC2(C)CC1CC2O` (stereo not drawn), the TGI in the experiment with CCRF-CEM leukemia, in the experiment with DU-145 prostate, with HCT-116 colon, in the experiment on HCT-15 colon, in the experiment on HOP-62 NSCLC and with IGROV1 ovarian was over 100 µM each time. Further, the TGI in the experiment on NCI-H226 lung and in the experiment with U251 CNS was over 100 µM throughout.

Consider `N#C/C(=C\NC(=S)Nc1ccc(S(=O)(=O)Nc2ccccn2)cc1)C(N)=O`, for which the total growth inhibition concentration (TGI) with CCRF-CEM leukemia, with DU-145 prostate, with HCT-116 colon, with HCT-15 colon, in the experiment on HOP-62 NSCLC and with IGROV1 ovarian was over 100 µM each time. The concentration for total growth inhibition (TGI) in the experiment with NCI-H226 lung, with SK-MEL-2 melanoma and with U251 CNS was over 100 µM throughout.

For the compound `CC(C)(C)OC(=O)NC(C)(C)C(=O)NCCC(=O)O`, the TGI with CCRF-CEM leukemia, in the experiment on HCT-15 colon, with HOP-62 NSCLC, in the experiment with IGROV1 ovarian, in the experiment on NCI-H226 lung and in the experiment on SK-MEL-2 melanoma was over 100 µM in each case. Besides, the TGI in the experiment with T-47D breast and in the experiment with U251 CNS was over 100 µM throughout.

As to `C=CCN(CC=C)Cn1c(=S)sc2ccccc21`, the TGI in the experiment with CCRF-CEM leukemia was 47.5 µM; in the experiment on DU-145 prostate, over 100 µM; in the experiment on HCT-116 colon, over 100 µM; in the experiment on HCT-15 colon it was over 100 µM; in the experiment on HOP-62 NSCLC, over 100 µM; in the experiment with IGROV1 ovarian, over 100 µM. Moreover, the total growth inhibition concentration (TGI) with SK-MEL-2 melanoma and with U251 CNS was over 100 µM throughout.

As for `Cc1cc(-c2nc3ccccc3s2)ccc1NS(=O)(=O)O`, the TGI with CCRF-CEM leukemia, in the experiment with DU-145 prostate, in the experiment on HCT-116 colon, in the experiment with HCT-15 colon, with HOP-62 NSCLC and in the experiment with IGROV1 ovarian was over 100 µM in each case. Further, the TGI with NCI-H226 lung, in the experiment with T-47D breast and in the experiment on U251 CNS was over 100 µM in each case.

As to `OCC1CCCC(n2cnc3c(=S)nc[nH]c32)O1` (stereo not drawn), the TGI in the experiment with DU-145 prostate, in the experiment with HCT-116 colon, in the experiment on HCT-15 colon, with HOP-62 NSCLC, in the experiment with IGROV1 ovarian and in the experiment on NCI-H226 lung was over 100 µM in each case. Besides, the TGI in the experiment with SK-MEL-2 melanoma, in the experiment on T-47D breast and in the experiment on U251 CNS was over 100 µM each time.

Take `Clc1cc(N/N=C(/c2ccccc2)c2ncccn2)ncn1`: the TGI with CCRF-CEM leukemia is 73.9 µM; with DU-145 prostate it was over 100 µM; in the experiment on HCT-116 colon it was 28.5 µM; in the experiment on HCT-15 colon, over 100 µM; with HOP-62 NSCLC, 59.3 µM; in the experiment on IGROV1 ovarian, 36.3 µM. Further, the figures for the TGI in the experiment on NCI-H226 lung, with SK-MEL-2 melanoma and with U251 CNS were over 100 µM, 82.6 µM and over 100 µM, respectively.

As for `CC12CC(c3ccccc3O1)C(C(=O)Nc1ccc(F)cc1)C(=O)N2` (stereo not drawn), the concentration for total growth inhibition (TGI) with CCRF-CEM leukemia, with DU-145 prostate, with HCT-116 colon, in the experiment with HCT-15 colon, in the experiment with HOP-62 NSCLC and in the experiment on IGROV1 ovarian was over 100 µM throughout. Further, the TGI in the experiment with SK-MEL-2 melanoma, in the experiment on T-47D breast and with U251 CNS was over 100 µM throughout.

In the case of `CCOc1ccc(N/C(=C(/C(Cl)=C(/Cl)NCCN)[N+](=O)[O-])n2nnc3ccccc32)cc1`, the TGI was over 100 µM with CCRF-CEM leukemia; 74.6 µM with HCT-116 colon; 38 µM in the experiment with HCT-15 colon; over 100 µM with HOP-62 NSCLC; over 100 µM in the experiment on NCI-H226 lung; over 100 µM in the experiment on SK-MEL-2 melanoma. Also, the concentration for total growth inhibition (TGI) in the experiment with T-47D breast and in the experiment on U251 CNS was over 100 µM in each case.

As for `COc1cc(COC(=O)N[C@H](C(=O)O)C(C)(C)C)c([N+](=O)[O-])cc1OC`, the concentration for total growth inhibition (TGI) in the experiment with CCRF-CEM leukemia, with DU-145 prostate, with HCT-116 colon, in the experiment with HCT-15 colon, in the experiment with HOP-62 NSCLC and in the experiment with IGROV1 ovarian was over 100 µM each time. Further, the TGI in the experiment with NCI-H226 lung, in the experiment with T-47D breast and with U251 CNS was over 100 µM each time.

With `CCCN=C1CC(C)Nc2ccccc2N1` (stereo not drawn), the TGI with CCRF-CEM leukemia, with DU-145 prostate, in the experiment on HCT-116 colon, with HCT-15 colon, in the experiment on HOP-62 NSCLC and in the experiment with IGROV1 ovarian was over 100 µM in each case. Besides, the TGI with NCI-H226 lung, with SK-MEL-2 melanoma and in the experiment on U251 CNS was over 100 µM throughout.

For the compound `Nc1nc2ncc(SCc3ccc(C(=O)NC(CCC(=O)O)C(=O)O)cc3)cc2c(=O)[nH]1` (stereo not drawn), the TGI with DU-145 prostate, in the experiment on HCT-116 colon, with HCT-15 colon, in the experiment on HOP-62 NSCLC, with IGROV1 ovarian and with NCI-H226 lung was over 100 µM each time. Besides, the TGI with SK-MEL-2 melanoma and with U251 CNS was over 100 µM in each case.

Take `O=C(/C(=C(/Br)I)c1ccccc1)c1ccccc1`: the TGI with CCRF-CEM leukemia was 30.4 µM; in the experiment with DU-145 prostate, 30.9 µM; in the experiment with HCT-116 colon, 31.7 µM; with HCT-15 colon it was 79.3 µM; in the experiment on IGROV1 ovarian, over 100 µM; with NCI-H226 lung it was 40.4 µM. Further, the total growth inhibition concentration (TGI) in the experiment on T-47D breast is 59.8 µM; in the experiment with U251 CNS, 53.1 µM.

In the case of `CO[C@@H](C(=O)OC1C=CC2(CC1)C(=O)N(C)c1ccccc12)c1ccccc1` (stereo partly drawn), the TGI with CCRF-CEM leukemia, in the experiment on DU-145 prostate, in the experiment on HCT-116 colon, in the experiment with HCT-15 colon, with HOP-62 NSCLC and with IGROV1 ovarian was over 100 µM each time. The TGI in the experiment with SK-MEL-2 melanoma, with T-47D breast and with U251 CNS was over 100 µM throughout.

Take `CCN(CC)CCn1c2cc3c(cc2c(=O)c2cccnc21)OCCO3`: the TGI in the experiment with CCRF-CEM leukemia, in the experiment with DU-145 prostate, with HCT-116 colon, with HCT-15 colon, in the experiment with HOP-62 NSCLC and with IGROV1 ovarian was over 10 µM throughout. In addition, the TGI in the experiment with T-47D breast and with U251 CNS was over 10 µM in each case.

The TGI is the concentration giving total growth inhibition. Read a high TGI as less potent growth arrest.
